Assay results: patent US20250144131A1, “POLYSACCHARIDE COMPOUND WITH A DEFINED MOLECULAR STRUCTURE FOR THE TREATMENT OF PULMONARY FIBROSIS” (SHENZHEN YANDAI INVESTMENT CO., LTD, priority 2023, published 2025)
Marks after values point to notes of the source that are not given here.

What was measured:
4T1 breast cancer cells = assay: Antitumor effect in 4T1 breast tumor-bearing mice (tumor volume, relative tumor growth inhibition rate, tumor index, tumor growth inhibition rate); format: in vivo, BALB/c mice
Experimental: Longest and shortest diameters of tumors were measured every three days to calculate tumor volume, and mouse weights were recorded every three days. At the end of the experiment, tumors, spleens, and thymuses were harvested and weighed to calculate tumor, spleen, and thymus indices. […] Where TRTV is the relative tumor volume in the experimental group, and CRTV is the relative tumor volume in the model control group. Relative tumor volume (RTV)=Vt/V0, where Vt is the tumor volume on day t of dosing, and V0 is the tumor volume at the time of grouping. Evaluation criteria: […] Where T represents the average tumor weight in the treatment group, and C represents the average tumor weight in the model control group. Evaluation criteria: […]

[1] = system: Liver cancer (H22) cells, orthotopic; assay: Tumors in orthotopic H22-bearing mice by small animal in vivo imaging; design: species or system C57 mice; settings: for Tumor (in vivo imaging): Kanglaite soft capsule 1404 mg/kg
Text: Liver cancer (H22) cells, labeled with Luc fluorescent marker at a concentration of 1×10^7 cells/mL, were initially inoculated into the peritoneal cavity of 8 male C57 mice. After the development of ascites, the ascitic fluid was aseptically extracted, washed with HBSS buffer, centrifuged to discard the supernatant, and stained with Trypan Blue, and cells in the ascitic fluid were counted under a microscope. The cell concentration was adjusted to […] with HBSS buffer and inoculated into the right hepatic region of 51 male C57 mice, at a volume of 10 μL per mouse, to prepare the orthotopic tumor-bearing mice. One week later, the liver tumor formation in mice was detected using a small animal in vivo imaging system. Based on tumor size, the mice were randomized into groups: model control group, cisplatin group (4 mg/kg), Kanglaite soft capsule group (1,404 mg/kg), cisplatin+Kanglaite soft capsule group (4+1,404 mg/kg), cisplatin+GLP-4 low-dose group (4+130 mg/kg), and cisplatin+GLP-4 high-dose group (4+1,170 mg/kg), with 6 mice per group. An additional 6 mice served as the normal control group. The normal control group and the model control group were administered pure water by oral gavage. The chemotherapy group received intraperitoneal injections of cisplatin, and the other groups were administered their respective drug solutions by oral gavage (20 mL/kg) or intraperitoneal injection (10 mL/kg), once daily for 14 consecutive days. After the last dose, blood was collected from the orbital plexus to test blood WBC, RBC, liver and kidney function indicators (ALT, AST, BUN, CRE), and CD3^+/CD4^+, CD3^+/CD8^+ ratios. The spleen, thymus, and tumors were weighed to calculate organ coefficients.
Tumor volume measurement: Tumor volume changes were measured weekly using small animal in vivo imaging technology.

LLC tumors = assay: Antitumor effect in LLC-bearing mice (tumor volume, relative tumor volume, T/C, tumor coefficient, tumor growth inhibition rate); format: in vivo, C57 mice
Text: Tumor volume measurement: […] Relative tumor volume (RTV)=TVt/TV0, where TV0 is the tumor volume at the time of administration, and TVt is the tumor volume at each measurement. Relative tumor growth rate T/C (%)=TRTV/CRTV×100%, where TRTV is the RTV for the treatment group and CRTV is the RTV for the control group. Tumor growth inhibition rate (%)=(model control group tumor weight−treatment group tumor weight)/model control group tumor weight×100%.

[2] = system: CD4+ and CD8+ lymphocyte subtypes; assay: Blood CD3+/CD4+ and CD3+/CD8+ by flow cytometry in LLC-bearing mice; format: in vivo, C57 mice; settings: blood after last dose, cisplatin 4, Kanglaite 1404, GLP-4 low-dose 130 mg/kg
Experimental: LLC cells in logarithmic growth phase at 1×10^7/mL were inoculated at 0.2 mL into the right axilla of 10 purchased normal male C57 mice. Tumor growth was monitored, and tumor-bearing mice were prepared. Once the tumor volume in tumor-bearing mice exceeded 200 mm^3, the tumor tissue was aseptically harvested to prepare a tissue cell suspension. This was mixed at a 1:1 (V:V) ratio with culture medium to create a tumor tissue homogenate. This homogenate was injected into the right axilla of 60 male C57 mice at 0.2 mL per mouse. When the tumor volume in these tumor-bearing mice exceeded 100 mm^3, mice with well-grown tumors without ulceration were selected and randomized into groups based on tumor volume as follows: model control group, cisplatin group (4 mg/kg), Kanglaite soft capsule group (1,404 mg/kg), cisplatin+Kanglaite soft capsule group (4+1,404 mg/kg), cisplatin+GLP-4 low-dose group (4+130 mg/kg), and cisplatin+GLP-4 high-dose group (4+1,170 mg/kg), with 8 mice per group. Additionally, 8 mice were selected as a normal control group. The cisplatin group received intraperitoneal injections of cisplatin, and the other groups were administered their respective drug solutions by gavage (20 mL/kg) or intraperitoneal injection (10 mL/kg), once daily for 27 consecutive days. […]

[3] = design: species or system C57 mice; settings: mouse, in vivo, 130 mg/kg
Experimental: Spleen and thymus organ coefficients: After the last dose, spleen, thymus, and tumor weights are measured, and organ coefficients are calculated. organ coefficient (%)=organ weight/fasting body weight×100%.

[4] = D4, cisplatin 4, Kanglaite 1404, GLP-4 low-dose 130 mg/kg
[5] = D7, cisplatin 4, Kanglaite 1404, GLP-4 low-dose 130 mg/kg
[6] = D10, cisplatin 4, Kanglaite 1404, GLP-4 low-dose 130 mg/kg
[7] = D13, cisplatin 4, Kanglaite 1404, GLP-4 low-dose 130 mg/kg
[8] = D16, cisplatin 4, Kanglaite 1404, GLP-4 low-dose 130 mg/kg
[9] = D19, cisplatin 4, Kanglaite 1404, GLP-4 low-dose 130 mg/kg
[10] = D22, cisplatin 4, Kanglaite 1404, GLP-4 low-dose 130 mg/kg
[11] = D25, cisplatin 4, Kanglaite 1404, GLP-4 low-dose 130 mg/kg

In the case of `N.N.[Cl][Pt][Cl]` [Cisplatin, cisplatin], the Tumor volume (4T1 breast cancer cells; D0, cisplatin 4 mg/kg) is reported as 225.3 ± 65.4 mm^3, the “Relative tumor growth inhibition rate (compared to model control group)” value (4T1 breast cancer cells; D3, cisplatin 4 mg/kg) is reported as 17.2% and the “Relative tumor growth inhibition rate (compared to model control group)” value (4T1 breast cancer cells; D6, cisplatin 4 mg/kg) is reported as 43.5* %. The “Relative tumor growth inhibition rate compared to the model control group” value (4T1 breast cancer cells; D6 to D25, cisplatin 4, GLP-4 low-dose 130 mg/kg) was “over 40%”, the “Relative tumor growth inhibition rate (compared to model control group)” value (4T1 breast cancer cells; D9, cisplatin 4 mg/kg) was 49.1* % and the “Relative tumor growth inhibition rate (compared to model control group)” value (4T1 breast cancer cells; D12, cisplatin 4 mg/kg) was 55.7* %. For the same molecule, the “Relative tumor growth inhibition rate (compared to model control group)” value (4T1 breast cancer cells; D15, cisplatin 4 mg/kg) was 56.9* %, the “Relative tumor growth inhibition rate (compared to model control group)” value (4T1 breast cancer cells; D19, cisplatin 4 mg/kg) was 48.8* % and the “Relative tumor growth inhibition rate (compared to model control group)” value (4T1 breast cancer cells; D22, cisplatin 4 mg/kg) was 44.1* %. For the same molecule, the “Relative tumor growth inhibition rate (compared to model control group)” value (4T1 breast cancer cells; D25, cisplatin 4 mg/kg) was 42.1* %, the Tumor volume (4T1 breast cancer cells; D25, cisplatin 4 mg/kg) was 2026.4 ± 707^ mm^3 and the “Tumor growth inhibition rate (%) vs. the model control group” value (4T1 breast cancer cells; cisplatin 4 mg/kg) was 29.6%. For the same molecule, the Tumor index (4T1 breast cancer cells; cisplatin 4 mg/kg) was 11.5 ± 3.3%, the “Peak relative tumor growth inhibition rate compared to the model control group” value (4T1 breast cancer cells; cisplatin 4, GLP-4 low-dose 130 mg/kg) was 56.9% and the “Tumor growth inhibition rate compared to the model control group” value (4T1 breast cancer cells; tumor weight, cisplatin 4, GLP-4 low-dose 130 mg/kg) was 29.6%. For the same molecule, the “Tumor (in vivo imaging)” value ([1]; W0, cisplatin 4 mg/kg) was 3756000 P/s/cm^2/sr, the “Tumor (in vivo imaging)” value ([1]; W1, cisplatin 4 mg/kg) was 12898500 P/s/cm^2/sr and the “Tumor (in vivo imaging)” value ([1]; W2, cisplatin 4 mg/kg) was 11871333 P/s/cm^2/sr. For the same molecule, the “Tumors compared to the model control group (in vivo imaging)” value ([1]; cisplatin 4, Kanglaite 1404, GLP-4 low-dose 130 mg/kg) was “significantly decreased on W2”, the Tumor volume (LLC tumors; D1, cisplatin 4, Kanglaite 1404, GLP-4 low-dose 130 mg/kg) was 94.99 ± 11.16 and the “Relative tumor growth rate (T/C)” value (LLC tumors; [4]) was 81.4%. For the same molecule, the Relative tumor volume (LLC tumors; [4]) was 1.84, the Tumor volume (LLC tumors; [4]) was 150.58 ± 34.35 and the “Relative tumor growth rate (T/C)” value (LLC tumors; [5]) was 45.5%. The Relative tumor volume (LLC tumors; [5]) was 0.10, the “Relative tumor growth rate (T/C)” value (LLC tumors; [6]) was 27.3% and the Relative tumor volume (LLC tumors; [6]) was 0.09. For the same molecule, the “Relative tumor growth rate (T/C)” value (LLC tumors; [7]) was 70.2%, the Relative tumor volume (LLC tumors; [7]) was 0.40 and the Tumor volume (LLC tumors; [7]) was 27.36 ± 24.4. The “Relative tumor growth rate (T/C)” value (LLC tumors; [8]) was 28.2%, the Relative tumor volume (LLC tumors; [8]) was 0.51 and the “Relative tumor growth rate (T/C)” value (LLC tumors; [9]) was 36.9%. For the same molecule, the Relative tumor volume (LLC tumors; [9]) was 0.97, the “Relative tumor growth rate (T/C)” value (LLC tumors; [10]) was 30.9% and the Relative tumor volume (LLC tumors; [10]) was 10.62. For the same molecule, the “Relative tumor growth rate (T/C)” value (LLC tumors; [11]) was 23.6%, the Relative tumor volume (LLC tumors; [11]) was 12.10 and the Tumor coefficient (LLC tumors; after last dose, cisplatin 4, Kanglaite 1404, GLP-4 low-dose 130 mg/kg) was 7.528 ± 2.567 ^ %. The “Tumor growth inhibition rate” value (LLC tumors; tumor weight vs model control, cisplatin 4, Kanglaite 1404, GLP-4 low-dose 130 mg/kg) was 61.6%, the “CD3+/CD4+” value [2] was 0.093 ± 0.025 and the “CD3+/CD8+” value [2] was 1.571 ± 0.406. For the same molecule, the Spleen coefficient [3] was 0.456 ± 0.102 ^ % and the Thymus coefficient [3] was 0.044 ± 0.020 %.
